Molecular target: Signal transducer and activator of transcription 3 (Homo sapiens, UniProt P40763)
Assay: Inhibition of STAT3 in human HeLa cells after 24 hrs by luciferase reporter gene assay

Signal transducer and activator of transcription 3, sequence (P40763 whole entry): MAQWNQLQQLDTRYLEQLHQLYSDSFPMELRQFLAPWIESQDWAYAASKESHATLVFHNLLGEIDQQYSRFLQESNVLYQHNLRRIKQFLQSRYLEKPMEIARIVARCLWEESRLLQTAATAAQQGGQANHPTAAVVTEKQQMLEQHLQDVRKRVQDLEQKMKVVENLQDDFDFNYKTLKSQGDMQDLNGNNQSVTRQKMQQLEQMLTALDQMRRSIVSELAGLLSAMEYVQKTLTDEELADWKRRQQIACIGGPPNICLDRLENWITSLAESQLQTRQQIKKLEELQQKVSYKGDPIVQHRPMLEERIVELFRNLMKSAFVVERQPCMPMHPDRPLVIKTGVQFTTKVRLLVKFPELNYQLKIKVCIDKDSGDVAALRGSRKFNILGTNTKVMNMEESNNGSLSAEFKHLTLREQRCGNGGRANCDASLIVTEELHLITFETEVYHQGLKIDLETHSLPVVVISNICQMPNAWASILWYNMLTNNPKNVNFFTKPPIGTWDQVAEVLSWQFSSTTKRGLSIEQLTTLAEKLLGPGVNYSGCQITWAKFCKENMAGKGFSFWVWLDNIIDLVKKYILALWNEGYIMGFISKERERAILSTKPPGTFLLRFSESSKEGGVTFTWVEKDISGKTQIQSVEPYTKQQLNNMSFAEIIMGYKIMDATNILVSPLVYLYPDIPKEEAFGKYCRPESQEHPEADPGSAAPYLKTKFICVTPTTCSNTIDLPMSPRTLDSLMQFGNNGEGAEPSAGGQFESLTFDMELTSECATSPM

IC50: 250 nM
SMILES: O=C(Nc1ccc([N+](=O)[O-])cc1Cl)c1cc(Cl)ccc1O [5-chloro-N-(2-chloro-4-nitrophenyl)-2-hydroxybenzamide]

Reference: BindingDB's records for doi:10.1021/ml100146z (2010)
